# Experimental data: ChEMBL document CHEMBL3352027, “Pharmacologically active metabolites, combination screening and target identification-driven drug repositioning in antituberculosis drug discovery” (2014)
# Tested on: Mycobacterium tuberculosis
# Test: Antitubercular activity against drug-resistant Mycobacterium tuberculosis
# Type: functional
row,Compound,MIC [µg/mL]
1,CN[C@@H]1[C@H](O)[C@H](NC)[C@H]2O[C@]3(O)[C@H](O[C@@H]2[C@H]1O)O[C@H](C)C[C@H]3NC(=O)Cc1cscn1,1.6
2,CN[C@@H]1[C@H](O)[C@H](NC)[C@H]2O[C@]3(O)[C@H](O[C@@H]2[C@H]1O)O[C@H](C)C[C@H]3NC(=O)Cc1ccc(F)cn1,1.6
3,CN[C@@H]1[C@H](O)[C@H](NC)[C@H]2O[C@]3(O)[C@H](O[C@@H]2[C@H]1O)O[C@H](C)C[C@H]3NC(=O)Cc1ccccc1,1.6
4,CN[C@@H]1[C@H](O)[C@H](NC)[C@H]2O[C@]3(O)[C@H](O[C@@H]2[C@H]1O)O[C@H](C)C[C@H]3NC(=O)CNC(C)(C)C,1.6
5,CN[C@@H]1[C@H](O)[C@H](NC)[C@H]2O[C@]3(O)[C@H](O[C@@H]2[C@H]1O)O[C@H](C)C[C@H]3NC(=O)Cc1ccccn1,1.6
6,CN[C@@H]1[C@H](O)[C@H](NC)[C@H]2O[C@]3(O)[C@H](O[C@@H]2[C@H]1O)O[C@H](C)C[C@H]3NC(=O)Cc1ccc(Cl)cn1,1.6
7,CN[C@@H]1[C@H](O)[C@H](NC)[C@H]2O[C@]3(O)[C@H](O[C@@H]2[C@H]1O)O[C@H](C)C[C@H]3NC(=O)Cc1cc(Cl)ccn1,1.6
